Assays:
[1] = target: Tyrosine-protein kinase CSK (Homo sapiens) (UniProt P41240); conditions: Compound concentration 1000.0 nM
[2] = test system: Epidermal growth factor receptor (Homo sapiens), P00533 [UNDEFINED MUTATION]; conditions: Compound concentration 1000.0 nM
[3] = target: Dual specificity mitogen-activated protein kinase kinase 5 (Homo sapiens) (UniProt Q13163); conditions: Compound concentration 1000.0 nM
[4] = target: Cyclin-dependent kinase 4 (Homo sapiens) (UniProt P11802); conditions: Compound concentration 1000.0 nM
[5] = target: Receptor-type tyrosine-protein kinase FLT3 (Homo sapiens) (UniProt P36888); conditions: Compound concentration 1000.0 nM
[6] = target: Tyrosine-protein kinase Srms (Homo sapiens) (UniProt Q9H3Y6); conditions: Compound concentration 1000.0 nM
[7] = target: Tyrosine-protein kinase ABL1 (Homo sapiens) (UniProt P00519); conditions: Compound concentration 1000.0 nM
[8] = target: Dual specificity testis-specific protein kinase 1 (Homo sapiens) (UniProt Q15569); conditions: Compound concentration 1000.0 nM
[9] = target: Muscarinic acetylcholine receptor M5 (Homo sapiens) (UniProt P08912); conditions: Compound concentration 10.0 uM
[10] = target: cGMP-dependent protein kinase 2 (Homo sapiens) (UniProt Q13237); conditions: Compound concentration 1000.0 nM
[11] = target: Muscarinic acetylcholine receptor M4 (Homo sapiens) (UniProt P08173); conditions: Compound concentration 10.0 uM
[12] = target: Phosphatidylinositol 4,5-bisphosphate 3-kinase catalytic subunit gamma isoform (Homo sapiens) (UniProt P48736); conditions: Compound concentration 1000.0 nM
[13] = target: Sigma non-opioid intracellular receptor 1 (Homo sapiens, UniProt Q99720); conditions: Compound concentration 10.0 uM
[14] = target: Alpha-1B adrenergic receptor (Homo sapiens) (UniProt P35368); conditions: Compound concentration 10.0 uM
[15] = test system: Hepatocyte growth factor receptor (Homo sapiens), P08581 [Y1235D]; conditions: Compound concentration 1000.0 nM
[16] = target: Ephrin type-B receptor 4 (Homo sapiens) (UniProt P54760); conditions: Compound concentration 1000.0 nM
[17] = target: NT-3 growth factor receptor (Homo sapiens) (UniProt Q16288); conditions: Compound concentration 1000.0 nM
[18] = target: Ribosomal protein S6 kinase alpha-1 (Homo sapiens) (UniProt Q15418); conditions: Compound concentration 1000.0 nM
[19] = target: Mitogen-activated protein kinase 10 (Homo sapiens) (UniProt P53779); conditions: Compound concentration 1000.0 nM
[20] = target: Homeodomain-interacting protein kinase 4 (Homo sapiens) (UniProt Q8NE63); conditions: Compound concentration 1000.0 nM
[21] = target: Serine/threonine-protein kinase TNNI3K (Homo sapiens) (UniProt Q59H18); conditions: Compound concentration 1000.0 nM
[22] = target: Serine/threonine-protein kinase PAK 6 (Homo sapiens) (UniProt Q9NQU5); conditions: Compound concentration 1000.0 nM
[23] = target: Cyclin-dependent kinase 17 (Homo sapiens) (UniProt Q00537); conditions: Compound concentration 1000.0 nM
[24] = target: Tyrosine-protein kinase SYK (Homo sapiens) (UniProt P43405); conditions: Compound concentration 1000.0 nM
[25] = target: Ribosomal protein S6 kinase alpha-6 (Homo sapiens) (UniProt Q9UK32); conditions: Compound concentration 1000.0 nM
[26] = target: Serine/threonine-protein kinase Nek9 (Homo sapiens) (UniProt Q8TD19); conditions: Compound concentration 1000.0 nM
[27] = target: Calcium/calmodulin-dependent protein kinase type II subunit gamma (Homo sapiens) (UniProt Q13555); conditions: Compound concentration 1000.0 nM
[28] = target: Protein kinase C delta type (Homo sapiens) (UniProt Q05655); conditions: Compound concentration 1000.0 nM
[29] = target: Serine/threonine-protein kinase 32C (Homo sapiens) (UniProt Q86UX6); conditions: Compound concentration 1000.0 nM
[30] = target: Serine/threonine-protein kinase 24 (Homo sapiens) (UniProt Q9Y6E0); conditions: Compound concentration 1000.0 nM
[31] = target: Serine/threonine-protein kinase Nek2 (Homo sapiens) (UniProt P51955); conditions: Compound concentration 1000.0 nM
[32] = target: Beta-1 adrenergic receptor (Homo sapiens) (UniProt P08588); conditions: Compound concentration 10.0 uM
[33] = target: Casein kinase I isoform gamma-2 (Homo sapiens) (UniProt P78368); conditions: Compound concentration 1000.0 nM
[34] = test system: Mast/stem cell growth factor receptor Kit (Homo sapiens), P10721 [L576P]; conditions: Compound concentration 1000.0 nM
[35] = target: MAP kinase-activated protein kinase 2 (Homo sapiens) (UniProt P49137); conditions: Compound concentration 1000.0 nM
[36] = target: Serine/threonine-protein kinase haspin (Homo sapiens) (UniProt Q8TF76); conditions: Compound concentration 1000.0 nM
[37] = target: Aurora kinase C (Homo sapiens) (UniProt Q9UQB9); conditions: Compound concentration 1000.0 nM
[38] = target: Phosphatidylinositol 4,5-bisphosphate 3-kinase catalytic subunit delta isoform (Homo sapiens) (UniProt O00329); conditions: Compound concentration 1000.0 nM
[39] = target: Receptor tyrosine-protein kinase erbB-4 (Homo sapiens) (UniProt Q15303); conditions: Compound concentration 1000.0 nM
[40] = target: Serine/threonine-protein kinase BRSK2 (Homo sapiens) (UniProt Q8IWQ3); conditions: Compound concentration 1000.0 nM
[41] = target: Tyrosine-protein kinase JAK2 (Homo sapiens) (UniProt O60674); conditions: Compound concentration 1000.0 nM
[42] = target: Serine/threonine-protein kinase ULK3 (Homo sapiens) (UniProt Q6PHR2); conditions: Compound concentration 1000.0 nM
[43] = target: Serine/threonine-protein kinase TBK1 (Homo sapiens) (UniProt Q9UHD2); conditions: Compound concentration 1000.0 nM
[44] = target: Ribosomal protein S6 kinase beta-1 (Homo sapiens) (UniProt P23443); conditions: Compound concentration 1000.0 nM
[45] = target: Protein kinase C iota type (Homo sapiens) (UniProt P41743); conditions: Compound concentration 1000.0 nM

Chain of Casein kinase I isoform gamma-2 (Homo sapiens) (P78368 whole entry, looked up, canonical isoform): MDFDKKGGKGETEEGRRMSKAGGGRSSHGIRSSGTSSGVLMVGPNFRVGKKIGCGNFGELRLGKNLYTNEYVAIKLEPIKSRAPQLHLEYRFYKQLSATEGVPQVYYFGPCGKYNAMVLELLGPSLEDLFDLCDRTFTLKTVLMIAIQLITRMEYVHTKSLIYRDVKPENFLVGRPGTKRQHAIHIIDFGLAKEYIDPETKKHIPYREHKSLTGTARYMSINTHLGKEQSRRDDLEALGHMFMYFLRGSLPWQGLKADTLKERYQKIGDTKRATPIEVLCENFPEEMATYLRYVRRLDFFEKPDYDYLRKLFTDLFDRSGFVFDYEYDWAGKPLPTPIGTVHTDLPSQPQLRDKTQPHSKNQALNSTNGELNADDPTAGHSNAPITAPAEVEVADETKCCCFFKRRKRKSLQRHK
Chain of Tyrosine-protein kinase ABL1 (Homo sapiens) (P00519 whole entry): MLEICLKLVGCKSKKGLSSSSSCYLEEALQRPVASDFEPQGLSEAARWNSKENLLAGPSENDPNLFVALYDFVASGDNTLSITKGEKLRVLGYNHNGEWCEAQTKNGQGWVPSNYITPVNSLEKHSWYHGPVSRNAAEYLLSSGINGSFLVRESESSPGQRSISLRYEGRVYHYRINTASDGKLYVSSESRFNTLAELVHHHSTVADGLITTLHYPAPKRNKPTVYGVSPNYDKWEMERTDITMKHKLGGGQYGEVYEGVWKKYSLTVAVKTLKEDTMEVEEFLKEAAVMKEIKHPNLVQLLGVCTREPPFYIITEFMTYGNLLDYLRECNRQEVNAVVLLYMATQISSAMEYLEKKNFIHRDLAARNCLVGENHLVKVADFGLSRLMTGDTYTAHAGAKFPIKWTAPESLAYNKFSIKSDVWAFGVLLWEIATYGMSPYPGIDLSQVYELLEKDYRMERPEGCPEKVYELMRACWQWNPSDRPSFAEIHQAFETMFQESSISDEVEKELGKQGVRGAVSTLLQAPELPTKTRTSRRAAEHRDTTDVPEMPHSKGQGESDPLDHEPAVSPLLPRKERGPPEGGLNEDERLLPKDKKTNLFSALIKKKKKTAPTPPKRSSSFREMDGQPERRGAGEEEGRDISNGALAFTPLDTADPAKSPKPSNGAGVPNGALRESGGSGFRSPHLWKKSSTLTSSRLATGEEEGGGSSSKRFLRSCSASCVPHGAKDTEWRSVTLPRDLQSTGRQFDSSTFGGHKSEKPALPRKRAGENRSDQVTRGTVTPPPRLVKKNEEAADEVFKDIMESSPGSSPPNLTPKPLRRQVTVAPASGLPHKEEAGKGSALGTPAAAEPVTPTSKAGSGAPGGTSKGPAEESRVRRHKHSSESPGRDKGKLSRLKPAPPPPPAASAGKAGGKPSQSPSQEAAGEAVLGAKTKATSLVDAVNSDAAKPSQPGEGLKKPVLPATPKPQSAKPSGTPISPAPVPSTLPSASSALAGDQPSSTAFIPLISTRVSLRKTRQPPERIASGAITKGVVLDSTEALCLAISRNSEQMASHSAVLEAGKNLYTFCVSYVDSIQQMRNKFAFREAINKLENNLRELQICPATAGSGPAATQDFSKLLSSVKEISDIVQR
Chain of Aurora kinase C (Homo sapiens) (Q9UQB9 whole entry, canonical isoform): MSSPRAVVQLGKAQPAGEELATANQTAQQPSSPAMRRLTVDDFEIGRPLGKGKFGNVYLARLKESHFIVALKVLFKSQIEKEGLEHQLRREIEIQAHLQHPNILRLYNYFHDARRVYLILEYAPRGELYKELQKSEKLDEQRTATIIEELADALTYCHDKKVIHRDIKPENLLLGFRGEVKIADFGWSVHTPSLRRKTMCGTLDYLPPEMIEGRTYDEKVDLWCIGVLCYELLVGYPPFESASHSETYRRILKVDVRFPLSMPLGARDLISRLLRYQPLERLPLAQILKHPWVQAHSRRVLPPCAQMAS
Chain of Cyclin-dependent kinase 17 (Homo sapiens) (Q00537 whole entry, looked up): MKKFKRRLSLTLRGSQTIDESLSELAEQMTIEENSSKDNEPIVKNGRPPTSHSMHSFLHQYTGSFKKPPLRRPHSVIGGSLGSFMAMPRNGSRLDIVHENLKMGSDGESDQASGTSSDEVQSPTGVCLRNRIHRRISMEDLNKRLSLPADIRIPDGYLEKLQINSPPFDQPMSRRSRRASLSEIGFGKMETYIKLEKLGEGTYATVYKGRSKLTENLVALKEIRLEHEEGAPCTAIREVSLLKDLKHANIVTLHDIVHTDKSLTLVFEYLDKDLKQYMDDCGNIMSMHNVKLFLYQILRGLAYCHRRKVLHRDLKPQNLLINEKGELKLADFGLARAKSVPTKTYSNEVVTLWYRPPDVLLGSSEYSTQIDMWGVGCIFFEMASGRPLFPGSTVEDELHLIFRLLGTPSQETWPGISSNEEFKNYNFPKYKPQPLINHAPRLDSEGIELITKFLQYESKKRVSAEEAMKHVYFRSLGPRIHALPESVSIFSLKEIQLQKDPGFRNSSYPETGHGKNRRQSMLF
Chain of Tyrosine-protein kinase CSK (Homo sapiens) (P41240 2-450 limits assumed): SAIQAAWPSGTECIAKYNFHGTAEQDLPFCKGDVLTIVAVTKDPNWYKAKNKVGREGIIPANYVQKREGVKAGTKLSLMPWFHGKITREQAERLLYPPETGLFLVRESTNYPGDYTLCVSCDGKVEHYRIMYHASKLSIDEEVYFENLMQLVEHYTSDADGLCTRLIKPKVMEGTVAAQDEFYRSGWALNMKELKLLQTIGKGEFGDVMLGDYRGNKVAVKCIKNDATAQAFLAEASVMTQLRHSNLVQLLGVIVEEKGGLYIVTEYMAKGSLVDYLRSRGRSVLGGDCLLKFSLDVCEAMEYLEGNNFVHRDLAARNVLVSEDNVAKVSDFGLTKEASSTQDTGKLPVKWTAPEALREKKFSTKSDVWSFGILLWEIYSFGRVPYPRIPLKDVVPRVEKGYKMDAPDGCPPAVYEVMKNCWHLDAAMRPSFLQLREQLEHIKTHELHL
Chain of Epidermal growth factor receptor (Homo sapiens), P00533 [UNDEFINED MUTATION] (P00533 whole entry, looked up, change not shown): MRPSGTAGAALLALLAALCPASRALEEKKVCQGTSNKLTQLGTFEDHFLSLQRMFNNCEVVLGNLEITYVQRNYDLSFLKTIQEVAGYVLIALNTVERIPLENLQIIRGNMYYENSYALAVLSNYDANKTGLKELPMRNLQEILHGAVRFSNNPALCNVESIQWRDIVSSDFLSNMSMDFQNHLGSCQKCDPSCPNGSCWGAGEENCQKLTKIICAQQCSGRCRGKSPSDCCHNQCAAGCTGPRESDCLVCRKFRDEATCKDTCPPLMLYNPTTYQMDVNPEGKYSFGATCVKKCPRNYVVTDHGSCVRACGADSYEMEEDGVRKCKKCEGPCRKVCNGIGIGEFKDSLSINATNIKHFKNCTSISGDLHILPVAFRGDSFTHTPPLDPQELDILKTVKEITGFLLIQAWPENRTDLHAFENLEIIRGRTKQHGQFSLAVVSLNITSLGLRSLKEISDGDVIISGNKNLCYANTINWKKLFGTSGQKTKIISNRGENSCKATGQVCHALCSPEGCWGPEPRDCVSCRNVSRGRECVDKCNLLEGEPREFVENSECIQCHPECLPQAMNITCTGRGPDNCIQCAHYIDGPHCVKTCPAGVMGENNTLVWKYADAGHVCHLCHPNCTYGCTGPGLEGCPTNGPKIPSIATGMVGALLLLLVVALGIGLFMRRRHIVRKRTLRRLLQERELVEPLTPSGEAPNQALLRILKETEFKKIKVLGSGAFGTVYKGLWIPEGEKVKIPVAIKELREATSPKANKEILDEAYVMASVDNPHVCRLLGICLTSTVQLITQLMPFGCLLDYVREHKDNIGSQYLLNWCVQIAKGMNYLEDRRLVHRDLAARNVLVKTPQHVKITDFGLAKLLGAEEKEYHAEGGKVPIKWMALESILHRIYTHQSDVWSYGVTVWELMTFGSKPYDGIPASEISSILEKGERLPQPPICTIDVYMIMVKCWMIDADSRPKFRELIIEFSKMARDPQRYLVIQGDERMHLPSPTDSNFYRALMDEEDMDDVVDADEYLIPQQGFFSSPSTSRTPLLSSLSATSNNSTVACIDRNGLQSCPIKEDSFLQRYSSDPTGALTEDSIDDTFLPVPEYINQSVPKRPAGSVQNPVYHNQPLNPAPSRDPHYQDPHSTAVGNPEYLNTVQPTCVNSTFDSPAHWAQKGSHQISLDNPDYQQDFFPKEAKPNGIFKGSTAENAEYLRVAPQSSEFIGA
Chain of Dual specificity mitogen-activated protein kinase kinase 5 (Homo sapiens) (Q13163 whole entry): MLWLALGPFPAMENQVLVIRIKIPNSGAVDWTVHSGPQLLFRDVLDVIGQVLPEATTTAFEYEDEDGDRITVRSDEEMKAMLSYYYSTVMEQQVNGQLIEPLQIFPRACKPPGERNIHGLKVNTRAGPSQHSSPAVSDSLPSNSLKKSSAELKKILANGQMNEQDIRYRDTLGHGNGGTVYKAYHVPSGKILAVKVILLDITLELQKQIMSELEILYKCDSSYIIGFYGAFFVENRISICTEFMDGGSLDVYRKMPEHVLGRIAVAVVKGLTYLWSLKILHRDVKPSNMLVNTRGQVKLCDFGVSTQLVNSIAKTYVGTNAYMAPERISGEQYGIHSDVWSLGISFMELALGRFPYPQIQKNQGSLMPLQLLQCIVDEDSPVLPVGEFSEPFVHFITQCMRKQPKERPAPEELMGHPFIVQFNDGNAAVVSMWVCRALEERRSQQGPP
Chain of Alpha-1B adrenergic receptor (Homo sapiens) (P35368 whole entry): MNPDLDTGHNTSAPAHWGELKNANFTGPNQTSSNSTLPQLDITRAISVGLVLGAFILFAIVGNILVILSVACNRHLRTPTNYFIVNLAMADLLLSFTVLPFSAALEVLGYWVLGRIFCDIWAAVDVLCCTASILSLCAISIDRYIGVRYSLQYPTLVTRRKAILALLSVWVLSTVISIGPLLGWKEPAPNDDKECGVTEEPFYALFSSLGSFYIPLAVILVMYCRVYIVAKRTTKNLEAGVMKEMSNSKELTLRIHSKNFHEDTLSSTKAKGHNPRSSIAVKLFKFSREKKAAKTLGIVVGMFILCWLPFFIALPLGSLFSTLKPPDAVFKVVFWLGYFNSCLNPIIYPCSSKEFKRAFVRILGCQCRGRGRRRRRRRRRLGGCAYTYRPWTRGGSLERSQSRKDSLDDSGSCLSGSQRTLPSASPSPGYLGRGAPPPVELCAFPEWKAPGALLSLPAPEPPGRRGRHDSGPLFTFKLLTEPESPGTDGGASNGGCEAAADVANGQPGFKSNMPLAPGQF

O=C(NC[C@@H]1[C@H]2CN(C(=O)OCc3cc(C(F)(F)F)cc(C(F)(F)F)c3)C[C@@H]12)c1ccc2[nH]nnc2c1 [BI 2545]
inactive: residual activity [1] 96% | residual activity [2] 72% | residual activity [3] 100% | residual activity [4] 95% | residual activity [5] 91% | residual activity [6] 83% | residual activity [7] 100% | residual activity [8] 79% | inhibition [9] 15.3% | residual activity [10] 82% | inhibition [11] 14.2% | residual activity [12] 76% | inhibition [14] 33.4% | residual activity [15] 76% | residual activity [16] 100% | residual activity [17] 91% | residual activity [18] 83% | residual activity [19] 90% | residual activity [20] 100% | residual activity [21] 80% | residual activity [22] 93% | residual activity [23] 100% | residual activity [24] 100% | residual activity [25] 86% | residual activity [26] 77% | residual activity [27] 85% | residual activity [28] 93% | residual activity [29] 90% | residual activity [30] 90% | residual activity [31] 100% | inhibition [32] 13.3% | residual activity [33] 100% | residual activity [34] 92% | residual activity [35] 100% | residual activity [36] 84% | residual activity [37] 91% | residual activity [38] 75% | residual activity [39] 100% | residual activity [40] 96% | residual activity [41] 100% | residual activity [42] 99% | residual activity [43] 100% | residual activity [44] 86% | residual activity [45] 98%
active: inhibition [13] 51.2%

Cc1nccc(COC(=O)N2C[C@@H]3[C@@H](CNC(=O)c4ccc5[nH]nnc5c4)[C@@H]3C2)n1 [BI 3017]
inactive: residual activity [1] 99% | residual activity [2] 100% | residual activity [3] 100% | residual activity [4] 80% | residual activity [5] 93% | residual activity [6] 87% | residual activity [7] 95% | residual activity [8] 98% | inhibition [9] -9.7% | residual activity [10] 100% | inhibition [11] 16.1% | residual activity [12] 89% | inhibition [13] 3.21% | inhibition [14] 30.2% | residual activity [15] 92% | residual activity [16] 100% | residual activity [17] 90% | residual activity [18] 96% | residual activity [19] 100% | residual activity [20] 84% | residual activity [21] 94% | residual activity [22] 95% | residual activity [23] 90% | residual activity [24] 100% | residual activity [25] 95% | residual activity [26] 100% | residual activity [27] 100% | residual activity [28] 95% | residual activity [29] 95% | residual activity [30] 90% | residual activity [31] 100% | inhibition [32] 12.4% | residual activity [33] 96% | residual activity [34] 89% | residual activity [35] 72% | residual activity [36] 91% | residual activity [37] 100% | residual activity [38] 85% | residual activity [39] 100% | residual activity [40] 86% | residual activity [41] 93% | residual activity [42] 100% | residual activity [43] 96% | residual activity [44] 84% | residual activity [45] 100%

— ChEMBL document CHEMBL4507275, “Data for DCP probe BI-2545” (2021)
